Reference: ChEMBL document CHEMBL3882388, “Pharmaceutical Compositions Comprising Beta-Lactam Antibiotic, Sulbactam and Beta-Lactamase Inhibitor” (2014)
Converted amounts (≈) assume the structure as drawn.

Experiments:
[1] = molecular target: Beta-lactamase (Acinetobacter baumannii) (UniProt Q8RLA6); settings: NCTC 13305
Acinetobacter baumannii [2] = experiment: Antibacterial activity against extended-spectrum b-lactamase producing Acinetobacter baumannii NCTC 13301 incubated for 16 to 20 hrs by CLSI method; assay type: functional
[3] = molecular target: Beta-lactamase (Acinetobacter baumannii) (UniProt Q8RLA6); settings: NCTC 13301
[4] = molecular target: Beta-lactamase (Acinetobacter baumannii) (UniProt Q8RLA6); settings: NCTC 13304
[5] = molecular target: Beta-lactamase (Acinetobacter baumannii) (UniProt Q8RLA6); settings: NCTC 13305; remark: listed apart in the source
[6] = molecular target: Beta-lactamase (Acinetobacter baumannii) (UniProt Q8RLA6); settings: S-8
[7] = molecular target: Beta-lactamase (Acinetobacter baumannii) (UniProt Q8RLA6); settings: NCTC 13305; remark: listed apart in the source
Acinetobacter baumannii [8] = experiment: Antibacterial activity against extended-spectrum b-lactamase producing Acinetobacter baumannii S-4 incubated for 16 to 20 hrs by CLSI method; assay type: functional
[9] = molecular target: Beta-lactamase (Acinetobacter baumannii) (UniProt Q8RLA6); settings: S-10
[10] = molecular target: Beta-lactamase (Acinetobacter baumannii) (UniProt Q8RLA6); settings: NCTC 13304; remark: listed apart in the source
Acinetobacter baumannii [11] = experiment: Antibacterial activity against extended-spectrum b-lactamase producing Acinetobacter baumannii NCTC 13304 incubated for 16 to 20 hrs by CLSI method; assay type: functional
[12] = molecular target: Beta-lactamase (Acinetobacter baumannii) (UniProt Q8RLA6); settings: S-8; remark: listed apart in the source
[13] = molecular target: Beta-lactamase (Acinetobacter baumannii) (UniProt Q8RLA6); settings: NCTC 13305; remark: listed apart in the source
[14] = molecular target: Beta-lactamase (Acinetobacter baumannii) (UniProt Q8RLA6); settings: S-10; remark: listed apart in the source
[15] = molecular target: Beta-lactamase (Acinetobacter baumannii) (UniProt Q8RLA6); settings: NCTC 13304; remark: listed apart in the source
[16] = molecular target: Beta-lactamase (Acinetobacter baumannii) (UniProt Q8RLA6); settings: S-4
[17] = molecular target: Beta-lactamase (Acinetobacter baumannii) (UniProt Q8RLA6); settings: NCTC 13304; remark: listed apart in the source
[18] = molecular target: Beta-lactamase (Acinetobacter baumannii) (UniProt Q8RLA6); settings: S-8; remark: listed apart in the source
Acinetobacter baumannii [19] = experiment: Antibacterial activity against extended-spectrum b-lactamase producing Acinetobacter baumannii NCTC 13305 incubated for 16 to 20 hrs by CLSI method; assay type: functional
[20] = molecular target: Beta-lactamase (Acinetobacter baumannii) (UniProt Q8RLA6); settings: S-15
[21] = molecular target: Beta-lactamase (Acinetobacter baumannii) (UniProt Q8RLA6); settings: NCTC 13304; remark: listed apart in the source
Acinetobacter baumannii [22] = experiment: Antibacterial activity against extended-spectrum b-lactamase producing Acinetobacter baumannii S-10 incubated for 16 to 20 hrs by CLSI method; assay type: functional
[23] = molecular target: Beta-lactamase (Acinetobacter baumannii) (UniProt Q8RLA6); settings: S-3
[24] = molecular target: Beta-lactamase (Acinetobacter baumannii) (UniProt Q8RLA6); settings: NCTC 13305; remark: listed apart in the source
[25] = molecular target: Beta-lactamase (Acinetobacter baumannii) (UniProt Q8RLA6); settings: S-3; remark: listed apart in the source
[26] = molecular target: Beta-lactamase (Acinetobacter baumannii) (UniProt Q8RLA6); experiment: Inhibition of beta-lactamase in extended-spectrum b-lactamase producing Acinetobacter baumannii S-3 assessed as potentiation of cefepime-induced antibacterial activity by measuring cefepime MIC at 4 to 8 ug/ml incubated for 16 to 20 hrs by CLSI method
[27] = molecular target: Beta-lactamase (Acinetobacter baumannii) (UniProt Q8RLA6); settings: S-3; remark: listed apart in the source
[28] = molecular target: Beta-lactamase (Acinetobacter baumannii) (UniProt Q8RLA6); settings: NCTC 13304; remark: listed apart in the source
[29] = molecular target: Beta-lactamase (Acinetobacter baumannii) (UniProt Q8RLA6); settings: S-3; remark: listed apart in the source
[30] = molecular target: Beta-lactamase (Acinetobacter baumannii) (UniProt Q8RLA6); settings: S-10; remark: listed apart in the source
Acinetobacter baumannii [31] = experiment: Antibacterial activity against extended-spectrum b-lactamase producing Acinetobacter baumannii S-3 incubated for 16 to 20 hrs by CLSI method; assay type: functional
[32] = molecular target: Beta-lactamase (Acinetobacter baumannii) (UniProt Q8RLA6); experiment: Inhibition of beta-lactamase in extended-spectrum b-lactamase producing Acinetobacter baumannii NCTC 13301 assessed as potentiation of cefepime-induced antibacterial activity by measuring cefepime MIC at 4 to 8 ug/ml incubated for 16 to 20 hrs by CLSI method
[33] = molecular target: Beta-lactamase (Acinetobacter baumannii) (UniProt Q8RLA6); settings: S-4; remark: listed apart in the source
[34] = molecular target: Beta-lactamase (Acinetobacter baumannii) (UniProt Q8RLA6); settings: NCTC 13304; remark: listed apart in the source

Sequence of Beta-lactamase (Acinetobacter baumannii) (Q8RLA6 as listed by the source): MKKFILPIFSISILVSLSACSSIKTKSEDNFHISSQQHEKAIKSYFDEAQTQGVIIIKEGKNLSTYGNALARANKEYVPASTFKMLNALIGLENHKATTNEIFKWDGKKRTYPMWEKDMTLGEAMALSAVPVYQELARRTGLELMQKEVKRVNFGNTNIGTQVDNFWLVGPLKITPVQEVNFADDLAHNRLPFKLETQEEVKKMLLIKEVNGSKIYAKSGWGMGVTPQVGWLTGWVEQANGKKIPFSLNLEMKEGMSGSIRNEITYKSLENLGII

`NC(=O)[C@@H]1CC[C@@H]2CN1C(=O)N2OS(=O)(=O)O` showed an MIC [1] of less than 0.06 mg/L, an MIC (Acinetobacter baumannii [2]) greater than 64 mg/L and an MIC [3] of less than 0.06 mg/L. The MIC [4] was less than 0.06 mg/L, the MIC [5] was less than 0.06 mg/L and the MIC [6] was 8 mg/L (≈ 30.2 µM). The MIC [7] was less than 0.06 mg/L, the MIC (Acinetobacter baumannii [8]) was greater than 64 mg/L and the MIC [9] was less than 0.03 mg/L. It also gave an MIC [10] of less than 0.06 mg/L, an MIC (Acinetobacter baumannii [11]) greater than 64 mg/L and an MIC [12] of 0.5 mg/L (≈ 1.89 µM). It also gave an MIC [13] of less than 0.06 mg/L, an MIC [14] of 8 mg/L (≈ 30.2 µM) and an MIC [15] of less than 0.06 mg/L. The MIC [16] was 0.5 mg/L (≈ 1.89 µM), the MIC [17] was less than 0.06 mg/L and the MIC [18] was 0.5 mg/L (≈ 1.89 µM). It also gave an MIC (Acinetobacter baumannii [19]) greater than 64 mg/L, an MIC [20] of 0.12 mg/L (≈ 0.452 µM) and an MIC [21] of less than 0.06 mg/L. It also gave an MIC (Acinetobacter baumannii [22]) greater than 64 mg/L, an MIC [23] of 1 mg/L (≈ 3.77 µM) and an MIC [24] of less than 0.06 mg/L. It also gave an MIC [25] of 0.5 mg/L (≈ 1.89 µM), an MIC [26] of 32 mg/L and an MIC [27] of 1 mg/L (≈ 3.77 µM). For the same molecule, the MIC [28] was less than 0.06 mg/L, the MIC [29] was 4 mg/L (≈ 15.1 µM) and the MIC [30] was less than 0.03 mg/L. The MIC (Acinetobacter baumannii [31]) was greater than 64 mg/L, the MIC [32] was greater than 32 mg/L and the MIC [33] was 1 mg/L (≈ 3.77 µM). The MIC [34] was less than 0.06 mg/L.
